Laboratory results reported in US20240181000A1, “LGG-DERIVED PEPTIDES AND METHODS OF USE THEREOF” (Ohio State Innovation Foundation, priority 2021, published 2024).
No end group written: not given here.

How the values were obtained:
APEC = test: Kinetic time-inhibition assay of synthesized peptides; format: cell-based, E. coli; details: 12 mM, 12 h
Experimental: Peptides were added to the APEC suspension in a 96-well plate, and plate was incubated in TECAN Sunrise™ absorbance microplate reader at 37° C. with OD600 measurement set at every 30 min for 12 hr. The sequences in FIG. 7 are […] (SEQ ID NO: 5), […] (SEQ ID NO: 18), […] (SEQ ID NO: 21), […] (SEQ ID NO: 26), and […] (SEQ ID NO: 32).
The five common highly abundant peptides in CFSs of both L. rhamnosus GG and B. lactis Bb12 ([…] (SEQ ID NO:5), […] (SEQ ID NO:18), […] (SEQ ID NO:21), […] (SEQ ID NO:26) and […] (SEQ ID NO:32)) were synthesized (GenScript, NJ, USA) and tested for anti-APEC activity by conducting kinetic time-inhibition assay as described previously. Briefly, peptides dissolved in dimethyl sulfoxide (DMSO) at 200 mM concentrations were added (12 mM; final concentration of 6% DMSO) to APEC suspension (10^5 CFU/mL; LB media) in a 96-well plate. The plate was then incubated in TECAN Sunrise™ absorbance microplate reader (NC, USA) at 37° C. with OD600 measurement set at every 30 mins for 12 h. Untreated APEC (0% DMSO) and APEC treated with 6% DMSO were included as controls. […] Three independent experiments were conducted.

APEC O78 [1] = test: Agar-well diffusion assay; format: cell-based, E. coli; details: whole culture, 24 h
Experimental: Agar-well diffusion assay: To determine the inhibitory activity of commensal and probiotic bacteria against APEC, agar-well diffusion assay was conducted as described previously. Briefly, LB agar plate was spread with 100 μL of APEC O78 (10^7 CFU/mL) and 100 μL of fully grown stationary phase whole cultures (adjusted to OD600: 1) of commensal and probiotic bacteria were aliquoted into the wells bored in the agar plate. The plate was incubated at 37° C., and zone of inhibition was measured at 12 h and 24 h post-incubation. The inhibitory activity of L. rhamnosus GG and B. lactis Bb12 was also tested with different culture volumes (200 μL, 150 μL and 50 μL) and against other APEC serotypes as described above. Assay was also conducted with cell-free supernatants (CF Ss) of L. rhamnosus GG and B. lactis Bb12 and supernatant-free L. rhamnosus GG and B. lactis Bb12 itself. CFSs were prepared by centrifugation of whole cultures at 10,000×g for 10 min at 4° C. followed by filtration through 0.22 μm filter. The supernatant-free cultures were washed once and resuspended in PBS to check the activity of L. rhamnosus GG and B. lactis Bb12 itself. Two independent experiments were conducted. […]

APEC O78 [2] = format: cell-based, E. coli
Experimental: Anti-APEC activity determination: The anti-APEC activity of peptides was determined in LB broth following CLSI guidelines. Briefly, overnight grown APEC O78 was adjusted to 5×10^5 CFU/mL concentration in fresh LB media. One-hundred microliters of APEC suspension was aliquoted into the wells of the 96-well plate. Peptides were added to the wells at 6 mM and 12 mM concentrations and incubated at 37° C. in TECAN Sunrise™ absorbance microplate reader with kinetic absorbance measurement set at every 30 mins for 12 h. Sterile media and DMSO (solvent) were used as controls. The growth inhibitory activity of the peptides against APEC was calculated using the formula: (OD600 DMSO treated well−OD600 peptide treated well)/OD600 DMSO treated well×100%.
The minimum inhibitory concentration (MIC) was determined for selected peptides (P1, P2, P3, and P4) using similar assay as above. Peptides were added to the wells of the 96-well plate at 6 mM, 9 mM, 12 mM, 15 mM, and 18 mM concentrations. The peptide concentration at which there is no visible APEC growth (no OD increase) was determined as MIC. Two independent experiments were conducted.
Arginine and lysine substituted peptide analogues: The non-essential amino acid residues identified in each peptide were substituted with arginine/lysine to test whether these substitutions enhance the anti-APEC activity of peptides. The MICs of arginine and lysine substituted peptide analogues ([…] (SEQ ID NO:37), […] (SEQ ID NO:38), […] (SEQ ID NO:39), KDENK (SEQ ID NO:41), PDEKK (SEQ ID NO:42), KDEKK (SEQ ID NO:43), KHTAPK (SEQ ID NO:45), VKTAPK (SEQ ID NO:46), VHTKPK (SEQ ID NO:47), and KKTKPK (SEQ ID NO:48)) were determined as above and compared with original peptides.

[3] = tested on: Salmonella enterica subsp. enterica serovar Enteritidis (SE); format: cell-based; details: subsp. enterica serovar Enteritidis (SE)
Experimental: MIC was determined by selecting peptide concentration at which there is no increased growth (no increase in OD), given indication of no ST growth. An independent repeat experiment was conducted.
Heat and protease tolerance of peptides: P1, P2, and P4 were heated for 6 minutes at 86° C. or treated with protease proteinase K, 200 μg/mL at 50° C. for 30 minutes. After which, the treated and/or heated peptides at their respective MICs were evaluated in the inhibition assay with Salmonella. The protocol from above was repeated in the Tecan with the same controls.
To analyze the perceived efficacy of arginine and lysine substitutes reported in previous studies, specific amino acid residues in P1 and P2 were replaced with lysine or arginine to test if the alliterations enhanced anti-Salmonella (ST and SE) activity. The MICs of the arginine or lysine substituted peptides ([…] (SEQ ID NO:37), […] (SEQ ID NO:38), […] (SEQ ID NO:39), KDENK (SEQ ID NO:41), PDEKK (SEQ ID NO:42), KDEKK (SEQ ID NO:43), KHTAPK (SEQ ID NO:45)) were determined as described early. Two independent experiments were conducted to ensure accuracy.

multiple APEC serotypes = format: cell-based, E. coli
Experimental: Anti-APEC spectrum determination: Peptides (P1, P2, and P3) were tested against multiple APEC serotypes/strains to determine their spectrum of activity. Peptides were added at their MICs and the growth inhibitory activity of the peptides was determined as described above.

APEC O78 [4] = test: Resistance after 13 passages at 0.75×MIC; format: cell-based, E. coli
Experimental: FIGS. 18A-18B show the growth of APEC O78 at MIC of the peptides after growing the bacteria for 13 passages with a sublethal concentration (0.75×MIC) of peptides. […] The OD 600 was measured at every 30 mins for 12 hrs.

APEC O78 [5] = format: cell-based, E. coli; details: 12 h
Experimental: FIGS. 13A-13C show the growth pattern of APEC O78 with and without peptide at 3-21 mM concentration. […] Various concentrations of peptides were added to the APEC suspension (5×10^5 CFU/mL) in a 96-well plate. The plate was incubated in a TECAN Sunrise™ absorbance microplate reader at 37° C., measuring the OD 600 set at every 30 mins for 12 hrs. After 12 hrs. incubation the bacteria were serially diluted and plated to count CFU/mL and calculated the inhibitory percentage using (Control-treated)/treated*100.
FIGS. 14A-14B show the growth pattern of APEC O78, treated with a combination of peptides at 3-21 mM concentration with respect to no peptide control. […] The two peptides were added together to the APEC suspension (5×10^5 CFU/mL) in a 96-well plate. The plate was incubated at 37° C. in a TECAN Sunrise™ absorbance microplate reader, measuring the OD 600 set at every 30 mins for 12 hrs. After incubation, the bacteria were serially diluted and plated to measure CFU/mL and calculate the inhibitory percentage using (Control-treated)/treated*100.

Biofilm-embedded APEC = test: Effect of PN peptides on biofilm embedded APEC; format: cell-based, E. coli; details: untreated 7.71 ± 0.72
[6] = tested on: various serovars of Salmonella; test: PN3 and PN5 on various serovars of Salmonella; format: cell-based; details: at MBC, 12 hrs
Experimental: Salmonella serovars (5×10^5 CFU/mL) were treated with peptides and grown at 37° C. for 12 hrs. In addition, bacterial inhibition percentage was calculated by comparing with no peptide control. […] Red: Bactericidal, Green: Non bactericidal.
FIGS. 32A-32B show the growth inhibition percentage of various serovars of Salmonella after treating with minimal inhibitory concentrations of peptides. […] Salmonella serovars (5×10^5 CFU/mL) were treated with peptides and grown at 37° C. for 12 hrs. In addition, bacterial inhibition percentage was calculated by comparing with no peptide control.

ST = test: Minimal bactericidal concentration of PN-3 and PN-5; format: cell-based, Salmonella enterica
Experimental: FIGS. 30A-30C show the growth pattern of ST with and without peptide at 9-21 mM concentration. […] The plate was incubated in a TECAN Sunrise™ absorbance microplate reader at 37° C., measuring the OD 600 set at every 30 mins for 12 hrs., followed by bacterial enrichment to determine the minimal bactericidal concentration log CFU/mL.

Intracellular APEC = test: Effect of PN peptides on intracellular APEC; format: cell-based, E. coli
[7] = tested on: various probiotic strains; format: cell-based; details: at MIC (PN3 12 mM, PN5 15 mM)
Experimental: FIGS. 16A-16B show the effect of the peptide on the growth of various probiotic strains after treating at their minimal inhibitory concentrations of 12 and 15 mM of PN3 and PN5, respectively. […] FIG. 16B the effect of 15 mM of PN5 peptide. The bacteria (5×10^5 CFU/mL) were treated with peptides and grown at 37° C. for 24 hrs in an anaerobic condition except for E. coli Nissel 1917 and E. coli G58-1, which has grown in aerobic conditions for 12 hrs. After incubation, serially dilute the culture and counted the CFU/mL Bacterial inhibition percentage was calculated by comparing with no peptide treated control.

In the case of AESSDTNLVNAKAA [PN-2], the “Inhibition of APEC growth” value (APEC) was “slightly inhibitory”.
AFDNTDTSLDSTFKSA [PN-4] was tested, and the “Inhibition of APEC growth” value (APEC) was “completely inhibitory”.
Bifidobacterium longum showed a Zone of inhibition (APEC O78 [1]) of 0.0 ± 0.0 mm.
With FSAVALSAVALSKPGHVNA [PN-1] the “Inhibition of APEC growth” value (APEC) was “did not affect the APEC growth”.
For KDEKK [KDEKK], the “MIC” value (APEC O78 [2]) was 12 mM.
KDENK [KDENK] was tested, and the “MIC” value (APEC O78 [2]) was 9 mM.
With KHTAPK [KHTAPK] the “MIC” value (APEC O78 [2]) was over 18 mM.
KKTKPK [KKTKPK] was tested, and the “MIC” value (APEC O78 [2]) was over 18 mM.
In the case of NPRRQERR, the “MIC” value (APEC O78 [2]) was 12 mM.
NPRRQRRR was tested, and the “MIC against SE” value [3] was over 18 mM.
In the case of NPRRRERR, the “MIC” value (APEC O78 [2]) was 12 mM.
In the case of NPSRRERR, the “MIC” value (APEC O78 [2]) was 15 mM.
In the case of PDEKK [PDEKK], the “MIC against SE” value [3] was 12 mM and the “MIC” value (APEC O78 [2]) was 9 mM.
With VHTAPK [Peptide P3, VHTAPK] the “Growth inhibition against APEC serotypes” value (multiple APEC serotypes) was 39.4-88.4%, the “MIC” value (APEC O78 [2]) was 18 mM and the “MIC50” value (APEC O78 [2]) was 16.2 mM.
For VHTKPK [VHTKPK], the “MIC” value (APEC O78 [2]) was over 18 mM.
In the case of VKTAPK [VKTAPK], the “MIC” value (APEC O78 [2]) was over 18 mM.
With VQAAQAGDTKPIEV [PN-3] the “Bacterial resistance against the peptides” value (APEC O78 [4]) was “did not cause bacterial resistance”, the Minimal inhibitory concentration (APEC O78 [5]) was 12 mM and the “Inhibition of APEC growth” value (APEC) was “completely inhibitory”. The “Biofilm-embedded APEC” value (Biofilm-embedded APEC) was 4.21 ± 0.48 Log CFU/mL, the “Bactericidal effect on eight Salmonella serotypes” value [6] was “kill all the eight serotypes of Salmonella with no viable colony” and the Minimal bactericidal concentration (ST) was 21 mM. The “Intracellular APEC” value (Intracellular APEC; 0.25 X, untreated 2.98 ± 0.87) was 2.64 ± 0.23 Log CFU/mL, the “Intracellular APEC” value (Intracellular APEC; 0.75 X) was 2.59 ± 0.30 Log CFU/mL and the “Intracellular APEC” value (Intracellular APEC; 1 X) was 2.50 ± 0.17 Log CFU/mL. For the same substance, the “Intracellular APEC” value (Intracellular APEC; 1.5 X) was 0.00 ± 0.00 Log CFU/mL, the “Growth of B. longum, B. adolescentis, and B. theoiotamicron” value [7] was “promoted the growth” and the “Growth of BB12, E. coli Nissel 1917 and E. coli G58-1” value [7] was “inhibited the growth”. For the same substance, the “Growth of LGG” value [7] was “unaffected”.
VTDTSGKAGTTKISNV [PN-5] was tested, and the “Bacterial resistance against the peptides” value (APEC O78 [4]) was “did not cause bacterial resistance”, the Minimal inhibitory concentration (APEC O78 [5]) was 15 mM and the “Inhibition of APEC growth” value (APEC) was “completely inhibitory”. The “Biofilm-embedded APEC” value (Biofilm-embedded APEC) was 4.95 ± 0.07 Log CFU/mL, the “Bactericidal effect on eight Salmonella serotypes” value [6] was “killed all serotypes except Saintpaul” and the Minimal bactericidal concentration (ST) was 21 mM. For the same substance, the “Intracellular APEC” value (Intracellular APEC; 0.25 X, untreated 2.98 ± 0.87) was 2.34 ± 0.11 Log CFU/mL, the “Intracellular APEC” value (Intracellular APEC; 0.75 X) was 2.30 ± 0.00 Log CFU/mL and the “Intracellular APEC” value (Intracellular APEC; 1 X) was 0.00 ± 0.00 Log CFU/mL. For the same substance, the “Intracellular APEC” value (Intracellular APEC; 1.5 X) was 0.00 ± 0.00 Log CFU/mL, the “Growth of B. longum, B. adolescentis, and B. theoiotamicron” value [7] was “promoted the growth” and the “Growth of BB12, E. coli Nissel 1917 and E. coli G58-1” value [7] was “inhibited the growth”. The “Growth of LGG” value [7] was “slightly affected”.
